Results published in patent US11401294B2, “Co-crystal forms of a novobiocin analog and proline” (Reata Pharmaceuticals, Inc., priority 2018, dated 2022).
Where two headings read alike, the source gives them in different places. Marks after values point to notes of the source that are not given here. Each block holds one molecule with its values, some of them ahead of it.

Assays:
in vivo = conditions: male, C57BL/6, mouse, po, 1000 mg/kg
Protocol: Blood samples for plasma isolation were collected at 0.25, 0.5, 1, 2, 4, 8, and 24 hours post-dose, using a separate group (n=5/group/time point) of mice for each time point, as summarized in Table 14 below. Plasma samples were analyzed for concentrations of 4a by LC/MS/MS methodology as described below.
4a was extracted from K3EDTA-fortified plasma samples using a protein precipitation method. In a well of a polypropylene microplate (96-well), 20 μL of a 2.5-ng/mL D3-4a (internal standard, IS) solution prepared in acetonitrile/H2O (1:1) was added, followed by addition of 20 μL of plasma sample. The plate was sealed with sealing tape (Phenomenex, AH0-7362) and gently mixed with a vortex-mixer for 1 minute. The solution was pipetted into a well of a polypropylene plate (96-well, 2 mL, Phenomenex, AH0-7194) that contained 500 μL of methanol. The plate was sealed and vortex-mixed for 5 minutes followed by centrifugation at 3000×g for 3 minutes at room temperature. A 300-μL aliquot of the supernatant was transferred to a new well that contained 300 μL of deionized water. After gentle mixing, the plate was sealed and placed in an LC autosampler maintained at 12° C., and a 10-μL aliquot was injected into an LC/MS/MS system for quantitative analysis of 4a.
Liquid chromatographic separation of 4a was achieved by a reversed-phase analytical column with mobile phase solution containing H2O, acetonitrile, and formic acid. The chromatographed analyte was detected by a Waters Xevo TQ-S triple quadrupole mass spectrometer operating in multiple-reaction-monitoring (MRM) mode. Chromatographed peak areas for quality control samples, calibration standards, and study samples were integrated using MassLynx software V4.1 (Waters Corp.).
Pharmacokinetic parameter estimates were obtained from non-compartmental analysis of the mean 4a plasma concentration-time data for each dose group using WinNonlin™ software version 6.3 (Pharsight Corp., Cary, N.C.). […] The time of the last measurable concentration was defined as the time after which 4a concentrations were below the limit of quantitation (BLQ) in the majority of animals for each dose group.

[1] = Systemic exposure to 4a after single oral gavage (suspension) or loose-filled capsule in monkeys (plasma LC/MS/MS, PK); type: in vivo, male cynomolgus monkeys; conditions: for AUC(0-t): read-out: AUC(0-t), mean (±SD); for Cmax: read-out: Cmax, mean (±SD); for Tmax: read-out: Tmax (median)
Protocol: Dosing of Material A accounted for the presence of proline on a weight basis. Blood samples for plasma isolation were collected at […], 0.5, 1, 2, 4, 8, 12, and 24 hours post-dose from each monkey.

[2] = as above; type: in vivo; conditions: male, cynomolgus, cynomolgus monkey, oral gavage suspension 30 mg/kg, 0.25 hr, read-out: 4a Plasma Concentration, mean (±SD)
Hsp90 = conditions: Kusuma (2012) and Ma (2015); cited from earlier work
neurons = conditions: Kusuma (2012); cited from earlier work
[3] = male, cynomolgus, cynomolgus monkey, plasma, oral gavage suspension 30 mg/kg, read-out: 4a Plasma Concentration, mean (±SD)
[4] = male, cynomolgus, cynomolgus monkey, plasma, oral gavage suspension 30 mg/kg
[5] = male, cynomolgus, cynomolgus monkey, plasma, oral, capsule 50 mg, read-out: 4a Plasma Concentration, mean (±SD)
[6] = male, cynomolgus, cynomolgus monkey, plasma, oral, capsule 50 mg, BLQ values included as 1/2 LLOQ (0.200 ng/mL), read-out: 4a Plasma Concentration, mean (±SD)
[7] = male, cynomolgus, cynomolgus monkey, plasma, po, 50 mg capsule

AUC(0-t) (in vivo): 2880 ng·h/mL
Cmax (in vivo): 6760 ng/mL
Tmax (in vivo): 15 min
concentration at 0.5 h (in vivo): 3060 ± 1600 ng/mL
concentration at 1 h (in vivo): 359 ± 140 ng/mL
concentration at 2 h (in vivo): 80.7 ± 116 ng/mL
concentration at 4 h (in vivo): 2.28 ± 0.92 ng/mL
concentration at 8 h (in vivo): 4.01 ± 4.34 ng/mL
4a Plasma Concentration, mean (±SD) ([1]; capsule 50 mg, 24 hr, BLQ values included as 1/2 LLOQ (0.200 ng/mL)): 6.11 ± 9.23^c ng/mL
concentration at 0.5 h [1, 3]: 129 ± 92 ng/mL
concentration at 1 h [1, 3]: 128 ± 56 ng/mL
concentration at 2 h [1, 3]: 80.2 ± 26.4 ng/mL
concentration at 4 h [1, 3]: 14.1 ± 5.5 ng/mL
concentration at 8 h [1, 3]: 1.2 ± 0.45 ng/mL
AUC(0-t) [1, 4]: 307 ± 96 ng·h/mL
Cmax [1, 4]: 160 ± 78 ng/mL
Tmax [1, 4]: 30 min
concentration at […] ([1]; male, cynomolgus, cynomolgus monkey, plasma, oral, capsule 50 mg, 0.25 hr, read-out: 4a Plasma Concentration, mean (±SD)): 15.9 ± 12.9 ng/mL
concentration at 0.5 h [1, 5]: 12.3 ± 5.5 ng/mL
concentration at 1 h [1, 5]: 5.97 ± 0.95 ng/mL
concentration at 2 h [1, 6]: 1.9 ± 1.89 ng/mL
concentration at 4 h [1, 6]: 0.2 ng/mL
concentration at 8 h [1, 6]: 0.951 ± 1.3 ng/mL
concentration at 12 h ([1]; male, cynomolgus, cynomolgus monkey, plasma, oral, capsule 50 mg, 12 hr, BLQ values included as 1/2 LLOQ (0.200 ng/mL), read-out: 4a Plasma Concentration, mean (±SD)): 3.53 ± 5.78 ng/mL
concentration at 24 h ([1]; male, cynomolgus, cynomolgus monkey, plasma, oral, loose-filled capsule 50 mg, 24 hours post-dose (secondary peak), read-out: mean (±SD) 4a plasma concentration): 6.11 ± 9.23 ng/mL
AUC(0-t) [1, 7]: 81.6 ± 105 ng·h/mL
Cmax [1, 7]: 19.7 ± 9.4 ng/mL
Tmax [1, 7]: 15 min
4a Plasma Concentration, mean (±SD) ([1]; oral gavage suspension 30 mg/kg, 12 hr): BLQ^d
4a Plasma Concentration, mean (±SD) ([1]; oral gavage suspension 30 mg/kg, 24 hr): BLQ^d
concentration at […] [2]: 103 ± 71 ng/mL
Structure (SMILES): CO[C@@H]1[C@@H](O)[C@@H](O)[C@H](Oc2ccc(CCNC(C)=O)c(-c3cccc(F)c3)c2)OC1(C)C [amorphous 4a, N-(2-(5-(((2R,3R,4S,5R)-3,4-dihydroxy-5-methoxy-6,6-dimethyltetra-hydro-2H-pyran-2-yl)oxy)-3′-fluoro-[1,1′-biphenyl]-2-yl)ethyl)-acetamide]

Structure (SMILES): CO[C@@H]1[C@@H](O)[C@@H](O)C(Oc2ccc(CCNC(C)=O)c(-c3cccc(F)c3)c2)OC1(C)C (single isomer, unassigned) [Form 4]
potency in Hsp70-independent inhibition of Hsp90 (Hsp90): excellent potency
neuronal protective activity (neurons): high neuronal protective activity
